Laboratory results as given in patent US10251845B2, “Fatty acid cysteamine conjugates and their use as activators of autophagy” (Catabasis Pharmaceuticals, Inc., priority 2014, dated 2019).
Read-outs that look alike come from different tables or passages of the source.

Assays:
[1] = test system: cell surface CFTR; experiment: Cell surface biotinylation in HT-29 cells, anti-CFTR immunoblot; type: cell-based; conditions: 50 μM, 24 hours
Description: The test compound was first solubilized in 100% DMSO as a 50 mM solution, and then diluted 1 to 100 in FBS as a 10× stock solution of 500 μM.
HT-29 cells were seeded at 2.0×10^6 cells in […] in 10% FBS DMEM overnight. The cell media was replaced with drug diluted 1 to 10 in DMEM (final concentration 50 μm in 10% FBS DMEM). 24 hours after drug addition, the cells were processed for cell surface biotinyaltion using Pierce Cell Surface Protein Isolation Kit (Thermo Scientific 89881). Briefly, cells were washed once with cold PBS and incubated with Sulfo-NHS-SS-Biotin for 30 minutes at 4° C. and reaction was stopped by adding Quenching solution. Cells were scraped and lysed and centrifuged at 10,000×g. Cell suspension were incubated with NeutrAvidin Agarose for 60 minutes at room temperature. Cell pellet (intracellular) were lysed in RIPA buffer. Protein bound to NeutrAvidin Agarose (cell surface) were eluted by SDS-PAGE sample buffer containing 50 mM DTT. Both cell surface and intracellular parts were analyzed by immunoblotting with anti-CFTR antibodies.

[2] = test system: LC3-II/LC3-I; experiment: In vivo autophagy activation in mouse lung tissues; conditions: mice, 100 mg/kg po BID 3.5 days; p=0.04
Description: In order to evaluate for in vivo autophagy activation, nave male C57BL/6 mice were dosed orally with compound II-3 (100 mg/kg, BID, 3.5 days). One hour after the last dose, lung tissues and plasma were collected to analyze for drug concentration and autophagy biomarkers. As discussed in earlier examples, the ratio of LC3-II to LC3-I was used as autophagy biomarker. When compound II-3 was dosed orally, the parent compound (i.e. II-3) and a major metabolite (i.e. compound I-1) was detected both in the plasma and lung tissues. One hour after the last dose, the plasma concentration of the parent compound II-3 was 143.0±52.35 ng/mL and the corresponding metabolite I-1 was 741.37±170.2 ng/mL. At this time point, the mouse lung tissue concentration of the parent compound II-3 was 536.48±24.01 ng/g. The metabolite I-1 was also detected in the lung tissues, at a concentration of 411.48±164.0 ng/g. Compound II-3 was able to induce autophagy at the given dose of 100 mg/kg and the 22% increase in the ratio of LC3-II to LC3-I in the isolated lung tissues was statistically significant (p=0.04, FIG. 12).

[3] = test system: CCL2; experiment: RT-PCR of CCL2 mRNA in LPS-stimulated THP-1 cells; type: cell-based; conditions: 25 μM, LPS stimulation
Description: THP-1 cells were obtained from ATCC® TIB202. THP-1 cells were maintained in RPMI1640 (Gibco® RPMI 1640) supplemented with 10% fetal bovine serum. DMEM (#11095) and fetal bovine serum (low endotoxin grade) (#10437) was obtained from Invitrogen.
Compounds II-3 and I-1 were first solubilized in 100% DMSO as 50 mM solution, and then diluted 1 to 200 in 1% BSA as a 10× stock solution of […], and series stock dilution (1 to 2 dilution) were carried out as needed. The 10× stock solution were added to the cell media and cells were incubated for 24 hours at 37° C. For LPS stimulation in THP-1 cells, compounds were added to the cell media for 6 hours at and at the end of 4 hours, 50 μg/ml final concentration of LPS (Sigma L3024) was added and cells were incubated for 2 hours. […] The total RNA was harvested, and the relative mRNA expression levels were assessed via RT-PCR with HPRT as the internal control. […] Significance was determined by student's t-test in comparison to control.
Total RNA was collected using RNeasy Plus Mini Kit (Qiagen #74136) and cDNA generated using SuperScriptIII (Invitrogen #18080-044) with random hexamers following the manufacturer's protocol. Relative mRNA expression levels were determined using TaqMan probes (Applied Biosystems, using the recommended best primer pairs) with HPRT (hypoxanthine phosphoryltransferase) as the internal control. […]

[4] = Oral cannulated rat PK study (portal and jugular vein); type: in vivo, Sprague Dawley rats; conditions: for AUC(0-t) / Cmax: Sprague Dawley
Excerpt: The compounds of the invention were solubilized in a mixture of excipients consisting 40% Tween, 50% Peceol, 10% PEG400 and diluted with water to form a self-emulsifying aqueous mixture for oral administration to animals. For this study, Sprague Dawley rats that have been surgically implanted with indwelling jugular vein cannula (JVC) and portal vein cannula (PVC) were used (Agilux, Worcester, Mass.). This approach using double-cannulated rats allowed the measurement of the drug concentration that was delivered in the portal vein as well as the drug concentration that was present in the peripheral. For the PK study, serial blood collection was carried out at both the portal and jugular vein at the following time points: 10, 20, 40 min and 1, 2, 4 and 6 hours post dose. The bioanalytical portion of the PK study was carried out using an LC/MS/MS system (Agilent Model No: HPLC: 1200, MS: 6410) and analyzed with the appropriate software (WinNonlin Phoenix 64 6.3.0 395).

CC/C=C\C/C=C\C/C=C\C/C=C\C/C=C\C/C=C\CCC(=O)NCCSSC(C)(C)CNC(=O)c1cccnc1 [II-3, N-(2-((2-((4Z,7Z,10Z,13Z,16Z,19Z)-docosa-4,7,10,13,16,19-hexaenamido)ethyl)disulfanyl)-2-methylpropyl)nicotinamide]
cell surface CFTR compared to vehicle control [1]: corresponding increase
increase in the ratio of LC3-II to LC3-I in the isolated lung tissues [2]: 22%
CCL2 mRNA level [3]: marked reduction
AUC(0-t) ([4]; jugular vein blood (peripheral), rat, oral, systemic circulation (jugular vein), read-out: peripheral AUClast): 300 ± 103 ng·h/mL
Cmax ([4]; jugular vein blood (peripheral), rat, oral, systemic circulation (jugular vein), read-out: peripheral Cmax): 102 ± 16.9 ng/mL
AUC(0-t) ([4]; portal vein blood, rat, oral, portal vein, read-out: portal AUClast): 679 ± 226 ng·h/mL
Cmax ([4]; portal vein blood, rat, oral, portal vein, read-out: portal Cmax): 331 ± 120 ng/mL
increase in the AUC, II-3 vs II-2 ([4]; dosed orally to rats, Example 23): 100 fold
peripheral Cmax of parent II-3 relative to parent II-2 ([4]; rat, oral): 100 fold
resistance to first pass metabolism ([4]; rat, oral): more resistant
peripheral AUClast ([4]; rat, oral, as restated in Example 23): 102 ng·h/mL
oral exposure in the rat compared with II-2 ([4]; summary of Example 18): better oral exposure
